# Experimental data from patent publication US20240065988A1, “COMBINED USE OF KETAMINE AND RETIGABINE (EZOGABINE) FOR THE TREATMENT OF PSYCHIATRIC DISORDERS” (Yeda Research and Development Co. Ltd., priority 2021, published 2024).
# Key:
# [1] = tested on: primary hippocampal neurons; test: qPCR mRNA expression in primary hippocampal neurons treated with ketamine or HNKet; type: cell-based, mouse; details: 10 μM
# Protocol: (§1) Primary hippocampal neurons were generated from E16.5 embryos using a standard primary neuron cell culture protocol previously described [K. G. Schraut et al., Eur JNeurosci (2021) 53: 390-401]. Briefly, dissected hippocampi were harvested in ice-cold dissection medium (HBSS, 7 mM HEPES, 2 mM L-glutamine, 500 U/ml penicillin-streptomycin, all Thermo Fisher Scientific). The tissue was incubated for 10 minutes in 0.25% Trypsin-EDTA with 8 mM HEPES (Thermo Fisher Scientific) in a water bath at 37° C. Tissue was washed three times with serum medium (DMEM, 10% FBS, Thermo Fisher Scientific). The cells were dissociated by titration using glass Pasteur pipets 10 in serum medium and filtered with a 70 tm cell strainer (Corning). Cell culture plates were coated overnight with 0.05 mg/ml poly-D-lysine mol wt 70,000-150,000 (Sigma Aldrich) in 0.15 M borate buffer (pH=8.5). Cells were seeded in 24-well plates at a density of 5×10^4 cells in 1 ml growth medium (Neurobasal A medium, 1 x B27 supplement, 0.25×GlutaMAX, all Thermo Fisher Scientific) per well. All cultures were kept in a humidified incubator at 37° C. and 5% CO2. Growth medium was renewed after 7 days of culture. For all experiments, mature twenty-one-day old primary neuronal cultures were used.
# Primary hippocampal neurons were generated from E16.5 embryos and cultured for 21 days, as described above (see Primary Cell Culture). For experiment 1 (FIGS. 3A-K), neurons were treated with a saline solution, (R,S)-ketamine (10 μM) (Ketaset, Zoetis, Germany) or (2R,6R)-HNKet (10 μM) (Sigma, Cat #SML1873-25MG) for 0, 2, 12, 24 or 48 hours and compared to untreated controls. For experiment 2 (FIGS. 6A-D), neurons were stimulated with either a saline solution, (2R,6R)-HNKet (10 μM), or a combination of (2R,6R)-HNKet (10 μM) plus nifedipine (10 μM) (Tocris Bioscience, Cat #1075), W-7 hydrochloride (10 μM) (Tocris, Cat #0369), or cyclosporine-A (1 μM) (Tocris, Cat #1101) for 30 minutes, 1, 2, or 6 hours, and compared to untreated controls.
# Ketamine treatment regulates Kcnq2 in primary hippocampal neurons To corroborate the previous findings in glutamatergic neurons, it was next examined whether treatment of primary hippocampal neurons with either (R,S)-ketamine or its active metabolite, (2R,6R)-hydroxynorketamine (HNKet), could modify the mRNA expression of the 8 genes tested earlier in glutamatergic neurons. Mouse primary hippocampal neurons are mostly made up of glutamatergic neurons and therefore make a very good model system to further validate the previous in vivo findings. […]
# [2] = tested on: Kcnq2 mRNA in primary hippocampal neurons; test: Kcnq2 mRNA in primary hippocampal neurons stimulated with HNKet alone or plus nifedipine, W-7 or cyclosporine-A; type: cell-based, mouse
# Protocol: as §1
# Primary hippocampal neurons were generated from E16.5 embryos and cultured for 21 days, as described above (see Primary Cell Culture). For experiment 1 (FIGS. 3A-K), neurons were treated with a saline solution, (R,S)-ketamine (10 μM) (Ketaset, Zoetis, Germany) or (2R,6R)-HNKet (10 μM) (Sigma, Cat #SML1873-25MG) for 0, 2, 12, 24 or 48 hours and compared to untreated controls. For experiment 2 (FIGS. 6A-D), neurons were stimulated with either a saline solution, (2R,6R)-HNKet (10 μM), or a combination of (2R,6R)-HNKet (10 μM) plus nifedipine (10 μM) (Tocris Bioscience, Cat #1075), W-7 hydrochloride (10 μM) (Tocris, Cat #0369), or cyclosporine-A (1 μM) (Tocris, Cat #1101) for 30 minutes, 1, 2, or 6 hours, and compared to untreated controls. […]
# [3] = tested on: KCNQ channel (KCNQ2/3, M-current); test: In vitro whole-cell voltage-clamp recording of M-current (IM) density in primary hippocampal neurons; type: cell-based, mouse; details: HNKet 10 μM, 24 hours vs saline
# mice (C57BL/6N) = test: Forced swim test (FST), pharmacological manipulation of KCNQ; type: in vivo, mouse; details: XE991 1 and 3 mg/kg BW in combination with saline (FIG. 23A)
# Protocol: C57BL/6N and CD-1 (ICR) male mice aged 10 weeks old were used in these experiments. Ketamine hydrochloride (Ketaset, Zoetis, Germany) was diluted in 0.9% NaCl solution (saline) and administered i.p at 1, 5 or 10 mg/kg BW, depending on the experiment design. The KNCQ inhibitor, XE991 (Alomone labs; Cat #: X-100) was diluted in 5% DMSO and administered i.p at 1 or 3 mg/kg BW. The KCNQ activator, Retigabine (Alomone labs; Cat #: R-100), was diluted in 5% DMSO and administered i.p at 1 or 5 mg/kg BW. As control, mice were injected with a DMSO-saline solution (5% DMSO). For all experiments, mice were tested 30 minutes after injection in the FST or over a period of 36 hours after injection in the social boxes.
# Previous studies in rodents have shown that KCNQ function can be regulated with highly-specific agonists and antagonists [V. Barrese et al., Annu Rev Pharmacol Toxicol (2018) 58: 625-648]. To further explore the KCNQ channel as a potential therapeutic target of ketamine, it was examined whether pharmacological inhibition of KCNQ alone or in combination with ketamine had any effects on behavior. To accomplish this, a new cohort of mice received two injections with a combination of drugs. […] To assess the effects of ketamine, XE991 (KCNQ inhibitor), and its combination, these mice were exposed to a FST (FIG. 7A, left). […] The inventors then sought to test whether the effects of ketamine could be mimicked, increased or amplified using retigabine, also known as ezogabine, a selective KCNQ (Kcnq2/3) channel activator. Similarly to the previous experiment, mice were treated with saline, (R,S)-ketamine (10 mg/kg BW), or ketamine in combination with two different concentrations of retigabine (1 and 5 mg/kg BW) (FIG. 7A, right).
# Next, it was examined whether retigabine could increase the sustained antidepressant-like effects produced by a single injection of ketamine in mice. Accordingly, a new cohort of mice were treated with a single dose of saline, ketamine, or ketamine in combination with retigabine (1 mg/kg) and antidepressant-like behaviors were assessed using the FST, 5—and 7-days post-injection (FIG. 8A). […] Next, as a potential therapeutic strategy for major depressive disorder (MDD), the synergistic effects of ketamine and retigabine was further investigated by testing whether or not retigabine can increase the antidepressant-like effects produced by ketamine in mice. […] Next, it was tested whether retigabine can produce similar synergistic effects in combination with traditional antidepressants. […] Lastly, using a new cohort of Nex-Cre-Ai9 mice, it was tested whether the adjunctive treatment of ketamine with retigabine, or escitalopram alone, could modify the expression of Kcnq2 mRNA in FACS sorted cells from the vHipp (FIG. 8F).
# [4] = tested on: Kcnq2 mRNA in glutamatergic neurons of the vHipp; test: qPCR mRNA levels in FACS-sorted glutamatergic neurons (Ai9+/tdTomato+) and remaining cells (Ai9-/tdTomato-) of Nex-Cre-Ai9 mice; type: in vivo, mouse; details: glutamatergic neurons (tdTomato+) of the vHipp, two days after treatment; ketamine 10, escitalopram 10, retigabine 1 mg/kg/BW
# From the text: Conditional transgenic mice expressing tdTomato in glutamatergic neurons of the forebrain (Nex-Cre;Ai9) were generated by crossing homozygous Nex-Cre mice [described in S. Goebbels et al., Genesis (2006) 44: 611-621] with homozygous Ai9 mice [Gt(ROSA)26Sortm9(CAG-tdTomato)Hze] [described in L. Madisen et al., Nat Neurosci (2010) 13: 133-140].
# In order to further investigate these findings, a conditional reporter mouse line (Nex-Cre-Ai9) was generated where most glutamatergic neurons of the forebrain, including the hippocampus, are fluorescently labeled by tdTomato (Ai9) except for neurons in the dentate gyrus where Neurod6, the promoter used to target glutamatergic neurons driving Cre expression, is not expressed (FIG. 12) [J. Hartmann et al., Mol Psychiatry (2017) 22: 466-475]. Following the same paradigm used in the original cohort, mice were group-housed and injected with (R,S)-ketamine (10 mg/kg BW) or a saline vehicle control. The vHipp of these mice was dissected […] later (i.e. 2 days). Single-cell suspensions were prepared and individual cells were sorted using fluorescence activated cell sorting (FACS) (FIG. 2A) into two separate pools of cells from each mouse. One pool contained glutamatergic neurons (Ai9+) and a second contained all remaining cell types of the vHipp (Ai9-) (FIG. 2A and FIGS. 13A-C). […] These two separate pools of cells were then used to validate the scRNA-seq findings in glutamatergic neurons at the population level using quantitative real-time polymerase chain reaction (qPCR).
# Next, it was tested whether retigabine can produce similar synergistic effects in combination with traditional antidepressants.
smiles,measurement,setting,value
"N[C@@]1(c2ccccc2Cl)CCC[C@@H](O)C1=O [HNKet, (2R,6R)-hydroxynorketamine]","mRNA expression of Hspa8, Snap25, Hsp90ab1, Ndufa4, Ilf2, E2f1 and Kcnq2","[1]; 2, 12, 24 or 48 hours",significant changes
same,Kcnq2 mRNA expression,"[1]; 2, 12, 24 or 48 hours vs untreated and saline controls",significant upregulation at all time points tested
same,Kcnq2 mRNA,"[2]; 1, 2 and 6 hours of stimulation, HNKet 10 μM",significant upregulation of Kcnq2 mRNA
same,expression of Kcnq2,"[2]; 30 minutes of treatment, HNKet 10 μM",No significant differences
same,IM current density,[3],significant increase in IM current density
"Cl.NCCCCCCNS(=O)(=O)c1cccc2c(Cl)cccc12 [W-7, W-7 hydrochloride]",effect of inhibitor on the HNKet-induced upregulation of Kcnq2 mRNA,"[2]; combined with HNKet 10 μM, nifedipine 10 μM, W-7 10 μM, cyclosporine-A 1 μM, 1, 2, 6 hours",eliminated the upregulation of Kcnq2
"O=C1c2ccccc2C(Cc2ccncc2)(Cc2ccncc2)c2ccccc21 [XE991, 10,10-bis(4-pirinydilmethyl)-9(10H)−antracenone]",immobility time during the FST,mice (C57BL/6N),No significant differences
CN(C)CCC[C@@]1(c2ccc(F)cc2)OCc2cc(C#N)ccc21 [escitalopram],Kcnq2 mRNA,[4],No significant changes
